In patent publication US4835185A, “Immunomodulator for improving commercial performance of domestic animals” (Iowa State University Research Foundation, Inc., priority 1987, dated 1989):

Assays:
[1] = Feeding of calcium versus sodium KIC to ruminants; format: in vivo, ruminants such as cattle and sheep
[2] = Water solubility of KIC salts; format: physicochemical; details: vs ammonium and alkali metal salts
[3] = test system: plasma cortisol; test: Plasma cortisol in pigs after test meals; format: in vivo
Experimental: To determine if KIC could acutely alter cortisol concentrations, young pigs were fed meals supplemented with leucine or KIC and plasma cortisol was measured.
In experiment 1, sixteen female pigs weighing 20-30 kg were used. Seven days before study, catheters were surgically placed in the right atria for blood sampling. Animals were housed in individual cages during the recovery period and had free access to water. Preceding the experiment, animals were fed twice daily a basal diet (2% of body weight per feeding). The basal diet consisted of a corn-soybean mix, adequate in all minerals and vitamins and containing approximately 14% crude protein. Test meals were formulated by additions to a basal diet. Five animals received the basal diet (control); five animals received the leucine meal, which had 2% leucine added to the basal diet; and six animals received the KIC diet, which had 2% KIC (sodium salt equivalent to 1.7% free acid) added to the basel diet. Studies were begun between 0800 and 0900 h after a 24-hr fast. Basal blood samples were taken at -20, -10 and -5 min. Animals were then offered 100 g of their respective test meal (time 0). Pigs were included in the study only if they consumed the entire meal in the first 20 min. […] Plasma was separated, Trasylol (FBA Pharmaceuticals, New York, NY) added (50 ul/ml), and plasma stored at -70 C. until analyzed.
(§1) Cortisol was measured by coated tube kits (Gammacoat, Travenol-Genetech Diagnostics, Cambridge, MA). Leucine and KIC were measured by high pressure liquid chromatography. Crystalline leucine was obtained from Sigma Chemical (St. Louis, MO) and KIC-sodium was obtained from SOBAC (Paris, France). Statistical analysis of the individual pig responses was conducted on mean plasma concentrations before the meal (-20 to 0 min) and after the meal (120 to 240 min). When the overall treatment F-value was significant, differences between individual treatments were determined using the pooled SEM and a T-test.

[4] = set-up: species or system pigs; details: pig, in vivo
Source text: In experiment 1, sixteen female pigs weighing 20-30 kg were used. Seven days before study, catheters were surgically placed in the right atria for blood sampling. Animals were housed in individual cages during the recovery period and had free access to water. Preceding the experiment, animals were fed twice daily a basal diet (2% of body weight per feeding). The basal diet consisted of a corn-soybean mix, adequate in all minerals and vitamins and containing approximately 14% crude protein. Test meals were formulated by additions to a basal diet. Five animals received the basal diet (control); five animals received the leucine meal, which had 2% leucine added to the basal diet; and six animals received the KIC diet, which had 2% KIC (sodium salt equivalent to 1.7% free acid) added to the basel diet. Studies were begun between 0800 and 0900 h after a 24-hr fast. Basal blood samples were taken at -20, -10 and -5 min. Animals were then offered 100 g of their respective test meal (time 0). Pigs were included in the study only if they consumed the entire meal in the first 20 min. Blood was sampled every 30 min from 120 to 240 min. Plasma was separated, Trasylol (FBA Pharmaceuticals, New York, NY) added (50 ul/ml), and plasma stored at -70 C. until analyzed.
as §1

Row | Plasma KIC, Change [4] | Plasma leucine, Change [4] | increase of plasma leucine concentration [4] | Plasma KIC, Post ([4]; 240 min) | Plasma leucine, Post ([4]; 240 min) | SMILES | effectiveness relative to sodium salt [1] | water solubility [2] | Plasma cortisol, Change ([3]; 2% in meal, control -0.09) | Plasma cortisol, Post ([3]; 2% in meal, pre: leucine 2.8, KIC 4.7, pooled SEM 0.49) | change in plasma cortisol ([3]; 2% leucine in meal, nonsignificant)
1 | – | – | – | – | – | CC(C)CC(=O)C(=O)O [Ca-KIC] | generally comparably effective with the sodium salt | less water-soluble | – | – | –
2 | 66 µM | 518 µM | 4 fold | 90 µM | 664 µM | CC(C)C[C@H](N)C(=O)O [leucine, reference compound] | – | – | -0.48 µg/dL | 2.4 µg/dL | -14%
